We go through five molecules from patent US12583872B2, “Photosensitizer compounds, methods of manufacture and application to plants” (NUTRIEN AG SOLUTIONS (CANADA) INC., priority 2019, dated 2026).

Assay [1] relates to Pseudomonas syringae pv. tabaci. In words: Relative inactivation of Pseudomonas syringae pv. tabaci in PBS (CFU count). The assay is classed as cell-based. Conditions: for Relative Inactivation (log[CFUcontrol mL^−1] − log[CFUtreatment mL^−1]): concentration not given; for Killing of bacteria: light treatment. Here is the method: Experiments were conducted to evaluate control of the gram-negative bacterial plant pathogen Pseudomonas syringae pv. tabaci with modified Ce6. Treatments were prepared in Phosphate Buffered Saline (PBS) in 96 well plates at desired concentrations. A bacterial suspension was inoculated into the PBS and incubated at 28° C. in the dark for 30 min. After 30 min, the 96 well plate was placed under illumination for 1 hour (at 21° C.). A separate plate prepared at the same time was kept in the dark without illumination and served as dark control. Following illumination, bacterial suspensions were serially diluted and 10 μL of each dilution was spread uniformly on Tryptic Soy Agar (TSA) plates and placed in the dark in an incubator at 28° C. for 48 hours. After 48 hours, bacterial colonies were counted and results were log transformed (log colony forming units (CFU)/mL). The relative inactivation was determined by taking the difference between log CFU (PBS control) and log CFU (treatments). Sample Illumination was provided by LED lights (Heliospectra RX30) emitting about 1000 μmol/m^2/s photosynthetically active radiation (PAR). The modified Ce6 that were evaluated are the Ce6-mix-DMAE^15,17 amide, Ce6-bis-DMAE^15,17 amide and Ce6-mono-DMAE^15 amide.

Assay [2] deals with Colletotrichum orbiculare ATC20767 (Cgm). In words: Control of fungal pathogen Cgm on Nicotiana benthamiana. The assay is classed as in vivo. Conditions: 0.05% + Surfactants (0.5% propylene glycol + 0.1% Pluronics F-127) (Table 14); host Nicotiana benthamiana. As to the method: Control of the fungal plant pathogen Colletotrichum orbiculare ATC20767 (Cgm) on the host plant Nicotiana benthamiana following treatment with modified Chlorin e6 compounds was assessed. Treatments were applied to N. benthamiana plants approximately 2 h prior to inoculation with a spore suspension of Cgm. Plants were then exposed to light for a 24-hour period followed by dark incubation until disease symptoms were evident on the water treated control plants. Once disease symptoms were evident, lesions were counted and leaf area measured in order to determine the number of lesions/cm^2 leaf area. Four replicate plants were used per treatment and plants were randomized under the light source. Illumination was provided by LED lights emitting about 180 μmol/m^2/s photosynthetically active radiation (PAR).

The subject of assay [3] is Pseudomonas syringae pv tabacci. In words: Control of bacterial pathogen Pst on Arabidopsis thaliana. The class given is in vivo. Conditions: 0.05% + surfactants (0.5% propylene glycol + 0.1% Pluronics F-127); host Arabidopsis thaliana; yellow leaves/plant. As to the method:
Arabidopsis thaliana plants were grown under 12 hours:12 hours, light:dark photoperiod, under LED lights (PAR 24 μmol m^−2 s^−1), at a temperature of 25° C.±3° C. and 65% relative humidity. After 3 weeks, plants were sprayed with formulations (50% dilution in water), allowed to dry for 2 h, after which Pseudomonas syringae pv tabacci (at OD0.08 diluted in 10 mM MgCl2) was sprayed. Plants were kept under plastic domes until symptoms develop. Disease severity was rated by counting the number of yellow leaves/plant. Data are average of 3 replicas.

Assay [4] has as its system dollar spot fungus (Sclerotinia homoeocarpa). In words: Dollar spot fungus broth protocol (PBS treatment, then radial growth on PDA). The assay is classed as cell-based. Conditions: Broth data; for inhibition at 100 µM: Clarireedia homoeocarpa. As to the method: Broth protocol: control of dollar spot fungus (Sclerotinia homoeocarpa) with modified chlorins was assessed. Treatments were prepared in Phosphate Buffered Saline (PBS) in 24 well plates (in duplicates for light vs. dark incubation) at desired concentrations. Then, a 5 mm diameter plug of a Sclerotinia homoeocarpa isolate (3 isolates total tested) was inoculated into the PBS and incubated at 21° C. in the dark for 2 hours. After 2 hours, one of the 24 well plates (with isolates in triplicate) was left in the dark and one 24 well plate was placed under illumination for 1 hour (all at 21° C.). Following illumination, fungal plugs were removed from PBS, blotted dry on sterile filter paper and transferred to non-amended Potato Dextrose Agar (PDA). Radial growth of the fungus was monitored daily until the growth of S. homoeocarpa reached the edge of the Petri-dish. Illumination was provided by LED lights emitting about 1000 μmol/m2/s photosynthetically active radiation (PAR).

For assay [5] the test system is unchanged. Briefly: Dollar spot fungus agar plate assay (amended PDA, radial growth). Conditions: for inhibition at 10 µM: Clarireedia homoeocarpa. The assay is classed as cell-based. As to the method: Control of dollar spot fungus (Sclerotinia homoeocarpa) with Ce6-mix-DMAE^15,17 amide and Ce6Na3 (comparative) was assessed. Treatments were amended into Potato Dextrose Agar (PDA) at desired concentrations. Then, a 5 mm diameter plug of a Sclerotinia homoeocarpa isolate (3 isolates total tested) was inoculated into the center of the amended Petri-dish and incubated at 21° C. in the dark for 24 h. After 24 h, one set of Petri-dishes (in triplicate) was left in the dark (no light) and one set was placed under illumination (light) for the remainder of the experiment (all at 21° C.). Radial growth of the fungus was monitored daily until the growth of S. homoeocarpa on non-amended PDA reached the edge of the Petri-dish. Illumination was provided by fluorescent lights emitting about 180 μmol/m^2/s photosynthetically active radiation (PAR).
Agar protocol: control of dollar spot fungus (Sclerotinia homoeocarpa) with modified Ce6 was assessed. Treatments were amended into Potato Dextrose Agar (PDA) at desired concentrations. Then, a 5 mm diameter plug of a Sclerotinia homoeocarpa isolate (3 isolates total tested) was inoculated into the center of the amended Petri-dish and incubated at 21° C. in the dark for 24 hours. After 24 hours, one set of Petri-dishes (in triplicate) was left in the dark and one set was placed under illumination for the remainder of the experiment (all at 21° C.). Radial growth of the fungus was monitored daily until the growth of S. homoeocarpa on non-amended PDA reaches the edge of the Petri-dish. Illumination was provided by fluorescent lights emitting about 180 μmol/m2/s photosynthetically active radiation (PAR).

In assay [6] the test system is Kentucky bluegrass (Poa pratensis). In words: Kentucky bluegrass tolerance to salt stress (turf quality). The assay is classed as in vivo. The note with it: 0.1%; 170 mM NaCl, 2 salt applications; scale 1-9 (1=dead, 9=healthy). Here is the method: Kentucky bluegrass (Poa pratensis) was grown under greenhouse conditions for ˜3 weeks. After 3 weeks, plants were sprayed with formulations and allowed to sit for 24 hours, after which the pots were placed in a 170 mM NaCl solution until the soil was saturated. The salt application was repeated again 7 days later for a total of 2 salt applications. Salinity stress was evaluated based on a turf quality scale of 1-9; where 1=dead, brown turf; 6=minimally acceptable turf quality (based on standards for golf courses or sports fields); and 9=dense, dark green turf (healthy). Data are average of 5 replicates.

Where [7] appears, read: Light: 1 hour about 1000 μmol/m^2/s PAR after 30 min dark incubation, where no CFU were left, treatment set to 1 CFU/mL.
Setting [8] is: Agar data, 10 uM, Dark (Table 5).
The mark [9] stands for this setting: Agar data, 10 uM, Light (Table 5).

One may read the inhibition as the relative decrease from the control value, in per cent. The term Inhibition denotes the drop in the measured response relative to a control, in per cent.

Molecules are shown by their SMILES.

Consider `C=Cc1c(C)c2cc3nc(c(CC(=O)NCCN(C)C)c4[nH]c(cc5nc(cc1[nH]2)C(C)=C5CC)c(C)c4C(=O)O)[C@@H](CCC(=O)O)[C@@H]3C` [Ce6-mono-DMAE^15 amide], for which the “Relative Inactivation (log[CFUcontrol mL^−1] − log[CFUtreatment mL^−1])” value is listed as 0.21 ± 0.33 in assay [1] (Dark control plate) and 7.98 ± 0.65 in assay [1] (setting [7]). In addition, the “Killing of bacteria” value in assay [1] is on record as “killed all bacteria”. The “Disease inhibition, %” value in assay [2] worked out at 94%; in assay [3], 56%.

On to `C=Cc1c(C)c2cc3nc(c(CC(=O)NCCN(C)C)c4[nH]c(cc5nc(cc1[nH]2)C(C)=C5CC)c(C)c4C(=O)O)[C@@H](CCC(=O)NCCN(C)C)[C@@H]3C` [Ce6-bis-DMAE^15,17 amide], for which the “Relative Inactivation (log[CFUcontrol mL^−1] − log[CFUtreatment mL^−1])” value in assay [1] (Dark control plate) is 1.13 ± 0.42; in assay [1] (setting [7]), 7.98 ± 0.65. Further, the “Killing of bacteria” value in assay [1] is on record as “killed all bacteria”.

With `C=Cc1c(C)c2cc3nc(c(CC(=O)NCCOP(=O)(O)O)c4[nH]c(cc5nc(cc1[nH]2)C(C)=C5CC)c(C)c4C(=O)O)[C@@H](CCC(=O)O)[C@@H]3C` [Ce6-mono-EP OA^15], the inhibition at 100 µM in assay [4] (100 uM, Dark) was -5%; in assay [4] (100 uM, Light), 71%.

For `C=Cc1c(C)c2cc3nc(c(CC(=O)NCCNCCCC)c4[nH]c(cc5nc(cc1[nH]2)C(C)=C5CC)c(C)c4C(=O)O)[C@@H](CCC(=O)O)[C@@H]3C` [Ce6-mono-BAE^15 amide], the values for the inhibition at 10 µM in assay [5] (setting [8]) and in assay [5] (setting [9]) were 49% and 99%, respectively.

As for `C=Cc1c(C)c2cc3nc(c(CC(=O)[O-])c4[nH]c(cc5nc(cc1[nH]2)C(C)=C5CC)c(C)c4C(=O)[O-])[C@@H](CCC(=O)[O-])[C@@H]3C.[Na+].[Na+].[Na+]` [Ce6Na3], the Inhibition is reported as 26% in assay [5] (setting [8]); 74% in assay [5] (setting [9]); 39% in assay [5] (Light, 5 μM, agar plate); 74% in assay [5] (Light, 10 μM, agar plate); 99% in assay [5] (Light, 31 μM, agar plate); 13% in assay [5] (No Light, 5 μM, agar plate). Further, the Inhibition is on record as 26% in assay [5] (No Light, 10 μM, agar plate); 44% in assay [5] (No Light, 31 μM, agar plate); −4% in assay [4] (10 uM, Dark); 53% in assay [4] (10 uM, Light); 16% in assay [4] (100 uM, Dark); 66% in assay [4] (100 uM, Light). The “Relative Inactivation (log[CFUcontrol mL^−1] − log[CFUtreatment mL^−1])” value in assay [1] (Dark control plate) was −0.03 ± 0.13; in assay [1] (setting [7]), 0.39 ± 0.29. Further, in assay [6], the “Turf Quality” value is recorded as 6.
